US12077503B2, “Substituted cyclic amides and their use as herbicides” (FMC CORPORATION, priority 2015, dated 2024)

Assays:
Assay type in all cases: in vivo
[1] = test system: velvetleaf (Abutilon theophrasti); experiment: Test G Post-Emergence Protocol; conditions: Abutilon theophrasti, post-emergence, 312 h
In short: (§1)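 Foliar application was made 8 days after sowing, using an aqueous spray of the active in acetone/water (50:50) with 0.5% Tween 20, at doses of 15.625, 62.5 or 250 g/ha. Injury was assessed 13 days later, where 100 meant the plant was fully damaged.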

[2] = test system: barnyardgrass (Echinochloa crus-galli); experiment: Test G Post-Emergence Protocol; conditions: Echinochloa crus-galli, post-emergence, 312 h
In short: as §1

[3] = test system: giant foxtail (Setaria faberi); experiment: Test G Post-Emergence Protocol; conditions: Setaria faberi, post-emergence, 312 h
In short: as §1

corn (Zea mays) [4] = experiment: Test G Post-Emergence Protocol; conditions: Zea mays, post-emergence, 312 h
In short: as §1

[5] = test system: redroot pigweed (Amaranthus retroflexus); experiment: Test G Post-Emergence Protocol; conditions: Amaranthus retroflexus, post-emergence, 312 h
In short: as §1

[6] = test system: ivy-leaved morning glory (Ipomoea hederacea); experiment: Test G Post-Emergence Protocol; conditions: Ipomoea, post-emergence, 312 h
In short: as §1

[7] = test system: velvetleaf (Abutilon theophrasti); experiment: Test G Pre-Emergence Protocol; conditions: Abutilon theophrasti, pre-emergence, 312 h, evaluated after 13 days
In short: (§2)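 Pre-emergence spray, 15.625/62.5/250 g/ha, vehicle acetone:water 50:50 + 0.5% Tween 20, applied 1 d after sowing. Glasshouse 24/16° C, 14 h light, 65% RH, watered twice daily. Visual damage rating at 13 d, 0–100 scale.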

[8] = test system: barnyardgrass (Echinochloa crus-galli); experiment: Test G Pre-Emergence Protocol; conditions: Echinochloa crus-galli, pre-emergence, 312 h, evaluated after 13 days
In short: as §2

[9] = test system: giant foxtail (Setaria faberi); experiment: Test G Pre-Emergence Protocol; conditions: Setaria faberi, pre-emergence, 312 h, evaluated after 13 days
In short: as §2

corn (Zea mays) [10] = experiment: Test G Pre-Emergence Protocol; conditions: Zea mays, pre-emergence, 312 h, evaluated after 13 days
In short: as §2

[11] = test system: redroot pigweed (Amaranthus retroflexus); experiment: Test G Pre-Emergence Protocol; conditions: Amaranthus retroflexus, pre-emergence, 312 h, evaluated after 13 days
In short: as §2

[12] = test system: ivy-leaved morning glory (Ipomoea hederacea); experiment: Test G Pre-Emergence Protocol; conditions: Ipomoea, pre-emergence, 312 h, evaluated after 13 days
In short: as §2

CN1C[C@@H](c2ccc(C(F)(F)F)cc2)[C@H](C(=O)Nc2cc(C(F)(F)F)n(C)n2)C1=O (racemic) [Compound 1512]
0%: pest or weed control at 15.625 g/ha ([1]; 15.625 g ai/ha, evaluated after 13 days (100=total damage to plant; 0=no damage to plant), read-out: Velvetleaf damage rating) | pest or weed control at 62.5 g/ha ([1]; 62.5 g ai/ha, evaluated after 13 days, read-out: Velvetleaf damage rating (100=total damage to plant; 0=no damage to plant)) | pest or weed control at 250 g/ha ([1]; 250 g ai/ha, evaluated after 13 days, read-out: damage to plant, Velvetleaf (100=total damage to plant; 0=no damage to plant)) | pest or weed control at 15.625 g/ha ([2]; 15.625 g ai/ha, evaluated after 13 days (100=total damage to plant; 0=no damage to plant), read-out: Barnyardgrass damage rating) | pest or weed control at 62.5 g/ha ([2]; 62.5 g ai/ha, evaluated after 13 days, read-out: Barnyardgrass damage rating (100=total damage to plant; 0=no damage to plant)) | pest or weed control at 250 g/ha ([2]; 250 g ai/ha, evaluated after 13 days, read-out: damage to plant, Barnyardgrass (100=total damage to plant; 0=no damage to plant)) | pest or weed control at 15.625 g/ha ([3]; 15.625 g ai/ha, evaluated after 13 days (100=total damage to plant; 0=no damage to plant), read-out: Foxtail, Giant damage rating) | pest or weed control at 62.5 g/ha ([3]; 62.5 g ai/ha, evaluated after 13 days, read-out: Foxtail, Giant damage rating (100=total damage to plant; 0=no damage to plant)) | pest or weed control at 250 g/ha ([3]; 250 g ai/ha, evaluated after 13 days, read-out: damage to plant, Foxtail, Giant (100=total damage to plant; 0=no damage to plant)) | plant injury at 15.625 g/ha (corn (Zea mays) [4]; 15.625 g ai/ha, evaluated after 13 days (100=total damage to plant; 0=no damage to plant), read-out: Corn damage rating) | plant injury at 62.5 g/ha (corn (Zea mays) [4]; 62.5 g ai/ha, evaluated after 13 days, read-out: Corn damage rating (100=total damage to plant; 0=no damage to plant)) | plant injury at 250 g/ha (corn (Zea mays) [4]; 250 g ai/ha, evaluated after 13 days, read-out: damage to plant, Corn (100=total damage to plant; 0=no damage to plant)) | pest or weed control at 15.625 g/ha ([5]; 15.625 g ai/ha, evaluated after 13 days (100=total damage to plant; 0=no damage to plant), read-out: Pigweed, Redroot damage rating) | pest or weed control at 62.5 g/ha ([5]; 62.5 g ai/ha, evaluated after 13 days, read-out: Pigweed, Redroot damage rating (100=total damage to plant; 0=no damage to plant)) | pest or weed control at 250 g/ha ([5]; 250 g ai/ha, evaluated after 13 days, read-out: damage to plant, Pigweed, Redroot (100=total damage to plant; 0=no damage to plant)) | pest or weed control at 15.625 g/ha ([6]; 15.625 g ai/ha, evaluated after 13 days (100=total damage to plant; 0=no damage to plant), read-out: Morningglory, Ivy-leaved damage rating) | pest or weed control at 62.5 g/ha ([6]; 62.5 g ai/ha, evaluated after 13 days, read-out: Morningglory, Ivy-leaved damage rating (100=total damage to plant; 0=no damage to plant)) | pest or weed control at 250 g/ha ([6]; 250 g ai/ha, evaluated after 13 days, read-out: damage to plant, Morningglory, Ivy-leaved (100=total damage to plant; 0=no damage to plant)) | pest or weed control at 15.625 g/ha ([7]; 15.625 g ai/ha, read-out: Velvetleaf damage rating (100=total damage to plant; 0=no damage to plant)) | pest or weed control at 62.5 g/ha ([7]; 62.5 g ai/ha, 100=total damage to plant, 0=no damage to plant, read-out: plant damage rating, Velvetleaf) | pest or weed control at 250 g/ha ([7]; 250 g ai/ha, read-out: Velvetleaf damage rating (100=total damage to plant; 0=no damage to plant)) | pest or weed control at 15.625 g/ha ([8]; 15.625 g ai/ha, read-out: Barnyard grass damage rating (100=total damage to plant; 0=no damage to plant)) | pest or weed control at 62.5 g/ha ([8]; 62.5 g ai/ha, 100=total damage to plant, 0=no damage to plant, read-out: plant damage rating, Barnyardgrass) | pest or weed control at 250 g/ha ([8]; 250 g ai/ha, read-out: Barnyardgrass damage rating (100=total damage to plant; 0=no damage to plant)) | pest or weed control at 15.625 g/ha ([9]; 15.625 g ai/ha, read-out: Foxtail, Giant damage rating (100=total damage to plant; 0=no damage to plant)) | pest or weed control at 62.5 g/ha ([9]; 62.5 g ai/ha, 100=total damage to plant, 0=no damage to plant, read-out: plant damage rating, Foxtail, Giant) | pest or weed control at 250 g/ha ([9]; 250 g ai/ha, read-out: Foxtail, Giant damage rating (100=total damage to plant; 0=no damage to plant)) | plant injury at 15.625 g/ha (corn (Zea mays) [10]; 15.625 g ai/ha, read-out: Corn damage rating (100=total damage to plant; 0=no damage to plant)) | plant injury at 62.5 g/ha (corn (Zea mays) [10]; 62.5 g ai/ha, 100=total damage to plant, 0=no damage to plant, read-out: plant damage rating, Corn) | plant injury at 250 g/ha (corn (Zea mays) [10]; 250 g ai/ha, read-out: Corn damage rating (100=total damage to plant; 0=no damage to plant)) | pest or weed control at 15.625 g/ha ([11]; 15.625 g ai/ha, read-out: Pigweed, Redroot damage rating (100=total damage to plant; 0=no damage to plant)) | pest or weed control at 62.5 g/ha ([11]; 62.5 g ai/ha, 100=total damage to plant, 0=no damage to plant, read-out: plant damage rating, Pigweed, Redroot) | pest or weed control at 250 g/ha ([11]; 250 g ai/ha, read-out: Pigweed, Redroot damage rating (100=total damage to plant; 0=no damage to plant)) | pest or weed control at 15.625 g/ha ([12]; 15.625 g ai/ha, read-out: Morning-glory, Ivy-leaved damage rating (100=total damage to plant; 0=no damage to plant)) | pest or weed control at 62.5 g/ha ([12]; 62.5 g ai/ha, 100=total damage to plant, 0=no damage to plant, read-out: plant damage rating, Morningglory, Ivy-leaved) | pest or weed control at 250 g/ha ([12]; 250 g ai/ha, read-out: Morningglory, Ivy-leaved damage rating (100=total damage to plant; 0=no damage to plant))
